In article PMC6315506 (Viruses, 2018):

Legend:
Conditions in all cases: 10 µM
[1] = tested on: HIV-1/H5N1 pseudovirus; test: organism not typed; format: cell-based, influenza A virus A/Goose/Qinghai/59/05 (H5N1)
[2] = tested on: HIV-1/EBOV pseudovirus
[3] = tested on: HIV-1/LASV pseudovirus; test: microbe, parasite or virus in culture; format: cell-based
[4] = tested on: A549 cells

Row | Compound | Inhibition HIV/H5N1 [1] | Inhibition HIV/EBOV [2] | Inhibition HIV/LASV [3] | Cell Viability [4]
1 | CN(C)CCN1CCN(Cc2ccc(-c3cc4cc(Br)ccc4nc3OCc3cccc4ccccc34)cc2)CC1 [SYL1688] | 91.36% | 99.92% | 88.12% | 80.00%
2 | COc1nc2ccc(Br)cc2cc1-c1ccc(CN(C)C)cc1 [SYL1689] | 97.51% | 99.94% | 88.23% | 78.79%
3 | CN(C)Cc1ccc(-c2cc3cc(Br)ccc3nc2OCc2ccc(-c3ccccc3)cc2)cc1 [SYL1690] | 98.15% | 99.85% | 86.95% | 80.30%
4 | Brc1ccc2nc(OCc3cccc4ccccc34)c(-c3ccc(Cn4ccnc4)cc3)cc2c1 [SYL1691] | 97.25% | 92.17% | 57.43% | 72.14%
5 | CN(C)c1ncc2cc(-c3cc4cc(Br)ccc4nc3OCc3cccc4ccccc34)ccc2n1 [SYL1692] | -2.23% | 48.65% | 11.86% | 87.98%
6 | CN(C)Cc1ccc(-c2cc3cc(Br)ccc3nc2OCc2c(F)cccc2F)cc1 [SYL1693] | 97.66% | 99.59% | 99.04% | 3.19%
7 | CN(C)Cc1ccc(-c2cc3cc(Br)ccc3nc2OCc2ccncc2)cc1 [SYL1696] | 97.45% | 99.25% | 98.53% | 26.82%
8 | Brc1ccc2nc(OCc3cccc4ccccc34)c(-c3ccc(CN4CCN(Cc5ccccc5)CC4)cc3)cc2c1 [SYL1697] | -5.87% | 67.57% | 15.89% | 90.86%
9 | CN(C)Cc1ccc(-c2cc3cc(Br)ccc3nc2Oc2ccc(OCc3ccccc3)cc2)cc1 [SYL1698] | 97.44% | 99.64% | 98.80% | 107.16%
10 | CN(C)Cc1ccc(-c2cc3cc(Br)ccc3nc2SCc2ccccc2)cc1 [SYL1699] | 94.56% | 99.94% | 93.73% | 105.32%
11 | CN(C)Cc1ccc(-c2cc3ccccc3nc2OCc2cccc3ccccc23)cc1 [SYL1701] | 98.51% | 99.94% | 97.96% | 88.01%
12 | COc1ccc2nc(OCc3cccc4ccccc34)c(-c3ccc(CN(C)C)cc3)cc2c1 [SYL1702] | 87.31% | 99.95% | 89.93% | 89.90%
13 | COc1ccccc1COc1nc2ccc(Br)cc2cc1-c1ccc(CN(C)C)cc1 [SYL1705] | 59.98% | 99.76% | 88.92% | 86.34%
14 | COc1ccc(COc2nc3ccc(Br)cc3cc2-c2ccc(CN(C)C)cc2)cc1 [SYL1706] | 54.58% | 99.20% | 87.40% | 82.99%
15 | COc1cccc(COc2nc3ccc(Br)cc3cc2-c2ccc(CN(C)C)cc2)c1 [SYL1707] | 95.43% | 99.14% | 78.74% | 80.79%
16 | Brc1ccc2nc(OCc3cccc4ccccc34)c(-c3ccc(CN4CCOCC4)cc3)cc2c1 [SYL1708] | 18.60% | 98.58% | 82.96% | 80.29%
17 | COc1cc(-c2cc3cc(Br)ccc3nc2OCc2cccc3ccccc23)ccc1CN(C)C [SYL1709] | 94.56% | 99.76% | 81.68% | 74.44%
18 | CN(C)CCN1CCN(c2ccc(-c3cc4cc(Br)ccc4nc3OCc3cccc4ccccc34)cc2)CC1 [SYL1710] | 97.63% | 99.39% | 98.64% | 1.97%
19 | CN(C)Cc1ccc(-c2cc3cc(Br)ccc3nc2N2CCN(C)CC2)cc1 [SYL1713] | 97.68% | 99.58% | 99.40% | 1.24%
20 | CN(C)Cc1ccc(-c2cc3cc(Br)ccc3nc2N2CCCCC2)cc1 [SYL1714] | 83.36% | 98.67% | 51.47% | 91.09%
21 | CN(C)Cc1ccc(-c2cc3cc(Br)ccc3nc2OCc2cccc(F)c2)cc1 [SYL1715] | 95.43% | 99.61% | 76.84% | 84.72%
22 | COc1cc(CN(C)C)ccc1-c1cc2cc(Br)ccc2nc1OCc1cccc2ccccc12 [SYL1716] | 98.20% | 99.70% | 99.34% | 1.73%
23 | CN(C)CCNc1nc2ccc(Br)cc2cc1-c1ccc(CN(C)C)cc1 [SYL1721] | 98.20% | 99.63% | 99.50% | 1.26%
24 | CN(C)CCOc1nc2ccc(Br)cc2cc1-c1ccc(CN(C)C)cc1 [SYL1723] | 98.10% | 99.81% | 97.12% | 68.89%
